One data set deals with Bromus. The experiment in a line: Comparison test with prior art compound B, post-emergence herbicidal action (Example B5). The format is in vivo. The conditions noted are these: 125 g/ha, rating scale 10=total damage, 0=no action. An excerpt:
(§1) The post-emergence herbicidal action of compound no. 1.096 according to the invention was compared with compound B, which is described as compound no. 2.088 on page 83,

The subject of data set [1] is Galium. The description is as above. The conditions noted are these: 125 g/ha, rating scale 10=total damage, 0=no action. The format is in vivo.
Description: as §1

Data set [2] relates to Ipomea. Described as above. The format is in vivo. The conditions noted are these: 125 g/ha, rating scale 10=total damage, 0=no action.
Description: as §1

In another data set the test system is Polygonum. The data set is described as above. The format is in vivo. The conditions noted are these: 125 g/ha, rating scale 10=total damage, 0=no action.
Description: as §1

For data set [3], the system named is Sida. Described as above. The conditions noted are these: 125 g/ha, rating scale 10=total damage, 0=no action. The format is in vivo.
Description: as §1

Data set [4] deals with Stellaria. Described as above. The conditions noted are these: 125 g/ha, rating scale 10=total damage, 0=no action. The format is in vivo.
Description: as §1

The test system of the next data set is Digitaria. Description: Microscreen, post-emergence herbicidal action (Example B3). The conditions noted are these: 250 g/ha, evaluated after 9 or 13 days, scale of eleven ratings (10=total damage, 0=no action). The format is in vivo. As for the experimental part: (§2) Example B3 Microscreen, Post-Emergence Herbicidal Action Monocotyledonous and dicotyledonous test plants are sown in sterilised standard soil in seed trays each having 96 cells. After 8 to 9 days' cultivation under controlled conditions in a climatic chamber (cultivation at 17/23° C.; 13 hours' light; 50-60% humidity; after application at 19/24° C.), the plants are treated with an aqueous spray solution of 1000 mg/l of the active ingredient used ([…]; incl. 10% DMSO as solvent). The plants are grown on in the climatic chamber until the test is evaluated after 9 or 13 days. The test is evaluated in accordance with a scale of eleven ratings (10=total damage, 0=no action). Ratings of from 10 to 7 (especially from 10 to 8) indicate very good to good herbicidal action.

For data set [5], the system named is Stellaria. The data set is described as above. The format is in vivo. The conditions noted are these: 250 g/ha, evaluated after 9 or 13 days, scale of eleven ratings (10=total damage, 0=no action). On the procedure:
as §2

In data set [6] the test system is Amaranthus. The description is as above. The format is in vivo. The conditions noted are these: 250 g/ha, evaluated after 9 or 13 days, scale of eleven ratings (10=total damage, 0=no action). As for the experimental part: (§3) Example B3 Microscreen, Post-Emergence Herbicidal Action Monocotyledonous and dicotyledonous test plants are sown in sterilised standard soil in seed trays each having 96 cells. […] The plants are grown on in the climatic chamber until the test is evaluated after 9 or 13 days. The test is evaluated in accordance with a scale of eleven ratings (10=total damage, 0=no action). Ratings of from 10 to 7 (especially from 10 to 8) indicate very good to good herbicidal action.

In the next data set the test system is Nasturtium. The data set is described as above. The format is in vivo. The conditions noted are these: 250 g/ha, evaluated after 9 or 13 days, scale of eleven ratings (10=total damage, 0=no action). As for the experimental part: as §3
Another data set concerns Solanum. Described as above. The format is in vivo. The conditions noted are these: 250 g/ha, evaluated after 9 or 13 days, scale of eleven ratings (10=total damage, 0=no action). On the procedure: as §3
Data set [7] concerns Maize. Description: Comparison test with prior art compound B, post-emergence herbicidal action (Example B5). The format is in vivo. The conditions noted are these: 125 g/ha.
Description: as §1

For data set [8], the system named is Wheat. Described as above. The format is in vivo. The conditions noted are these: 125 g/ha.
Description: as §1

Data set [9] concerns Amaranthus. Description: Comparison test with prior art compound A, post-emergence herbicidal action (Example B4). The conditions noted are these: 125 g/ha, rating scale 10=total damage, 0=no action. The format is in vivo. An excerpt:
(§4) The post-emergence herbicidal action of compound no. 1.095 according to the invention was compared with compound A, which is described as compound no.

The subject of data set [10] is Galium. The description is as above. The conditions noted are these: 125 g/ha, rating scale 10=total damage, 0=no action. The format is in vivo.
Description: as §4

Data set [11] relates to Ipomea. Described as above. The conditions noted are these: 125 g/ha, rating scale 10=total damage, 0=no action. The format is in vivo.
Description: as §4

In data set [12] the test system is Maize. The description is as above. The format is in vivo. The conditions noted are these: 125 g/ha, crop plant, rating scale 10=total damage, 0=no action.
Description: as §4

Data set [13] relates to Sida. The description is as above. The format is in vivo. The conditions noted are these: 125 g/ha, rating scale 10=total damage, 0=no action.
Description: as §4

The next data set concerns Sinapis. The description is as above. The conditions noted are these: 125 g/ha, rating scale 10=total damage, 0=no action. The format is in vivo.
Description: as §4

Data set [14] relates to Stellaria. The data set is described as above. The format is in vivo. The conditions noted are these: 125 g/ha, rating scale 10=total damage, 0=no action.
Description: as §4

Data set [15] concerns Wheat. Described as above. The format is in vivo. The conditions noted are these: 125 g/ha, crop plant, rating scale 10=total damage, 0=no action.
Description: as §4

Where [16] appears, read: crop plant, rating scale 10=total damage, 0=no action.

The term melting point denotes the temperature, or range, at which the solid turns liquid. Regarding `COc1nc(C(=O)C2=C(O)CCCC2=O)ccc1C(F)(F)F` [Compound 1.096], the melting point lay within 80 to 81 °C. For the same compound, the “Post-emergence herbicidal action: Bromus” value in the data set on Bromus was 5. Moreover, the “Post-emergence herbicidal action: Galium” value with Galium [1] amounted to 8. The “Post-emergence herbicidal action: Ipomea” value with Ipomea [2] came out at 7. Further, in the data set with Polygonum, the “Post-emergence herbicidal action: Polygonum” value is 8. Further, in the data set on Sida [3], the “Post-emergence herbicidal action: Sida” value is 7. Besides, the “Post-emergence herbicidal action: Stellaria” value with Stellaria [4] is 8. Moreover, the “Digitaria, herbicidal action rating” value in the data set on Digitaria came to 8. For the same compound, in the data set on Stellaria [5], the “Stellaria, herbicidal action rating” value was determined as 9. In addition, the “Amaranthus, herbicidal action rating” value in the data set with Amaranthus [6] was 9. Also, the “Nasturtium, herbicidal action rating” value in the data set on Nasturtium amounted to 10. The “Solanum, herbicidal action rating” value with Solanum is 9.

Regarding `COc1nc(C(=O)C2=C(O)C3CCC(C3)C2=O)ccc1C(F)(F)F` (stereo not drawn) [B, reference compound], in the data set on Galium [1], the “Post-emergence herbicidal action: Galium” value came out at 4. In addition, the “Post-emergence herbicidal action: Ipomea” value with Ipomea [2] is reported as 6. In the data set with Maize [7] (setting [16]), the “Post-emergence herbicidal action: Maize” value was 2. Further, in the data set on Maize [7] (post-emergence), the phytotoxicity to maize came to 20%. Also, in the data set on Polygonum, the “Post-emergence herbicidal action: Polygonum” value is listed as 4. The “Post-emergence herbicidal action: Stellaria” value in the data set with Stellaria [4] came to 6. Besides, the “Post-emergence herbicidal action: Wheat” value with Wheat [8] (setting [16]) is given as 2. Moreover, in the data set with Wheat [8] (post-emergence), the phytotoxicity to wheat is reported as 20%.

As to `O=C1CCCC(O)=C1C(=O)c1ccc(C(F)(F)F)c(Cl)n1` [Compound 1.095], in the data set with Amaranthus [9], the “Post-emergence herbicidal action: Amaranthus” value amounted to 7. Besides, the “Post-emergence herbicidal action: Galium” value with Galium [10] is recorded as 6. Moreover, the “Post-emergence herbicidal action: Ipomea” value with Ipomea [11] came out at 7. Moreover, the “Post-emergence herbicidal action: Maize” value in the data set with Maize [12] was 0. Further, the “Post-emergence herbicidal action: Sida” value in the data set with Sida [13] is listed as 5. For the same compound, the “Post-emergence herbicidal action: Sinapis” value with Sinapis stood at 7. Moreover, the “Post-emergence herbicidal action: Stellaria” value in the data set with Stellaria [14] is reported as 8. For the same compound, the “Post-emergence herbicidal action: Wheat” value with Wheat [15] worked out at 0. Moreover, in the data set on Digitaria, the “Digitaria, herbicidal action rating” value amounted to 3. The “Stellaria, herbicidal action rating” value with Stellaria [5] is listed as 7. The “Amaranthus, herbicidal action rating” value in the data set on Amaranthus [6] is given as 7. Moreover, in the data set on Nasturtium, the “Nasturtium, herbicidal action rating” value worked out at 9. The “Solanum, herbicidal action rating” value with Solanum is listed as 7.

The values are drawn from patent US20070167631A1, “Novel herbicides” (priority 2003, published 2007).
